From ChEMBL document CHEMBL1138693, “Synthesis and biological evaluation of piperazine-based derivatives as inhibitors of plasminogen activator inhibitor-1 (PAI-1)” (Bioorg Med Chem Lett, 2004)

Legend:
[1] = biological target: Plasminogen activator inhibitor 1 (Homo sapiens, UniProt P05121); experiment: Inhibitory concentration against plasminogen activator inhibitor-1 (PAI-1)
[2] = Clearance of compound in rats after intravenous administration; assay type: ADME, organism-based; conditions: rat, in vivo
[3] = Half-life period of compound in rats after peroral administration; assay type: ADME, organism-based; conditions: rat, in vivo, po
[4] = Volume of distribution of compound in rats after intravenous administration; assay type: ADME, organism-based; conditions: rat, in vivo, read-out: Vdss
[5] = Maximal concentration in rats after peroral administration; assay type: ADME, organism-based; set-up: route oral; conditions: rat, in vivo, po
[6] = […] of compound in rats after peroral administration; assay type: ADME, organism-based; conditions: rat, in vivo, po
[7] = Bioavailability in rat; assay type: ADME, organism-based; conditions: in vivo

Sequence of Plasminogen activator inhibitor 1 (P05121 whole entry): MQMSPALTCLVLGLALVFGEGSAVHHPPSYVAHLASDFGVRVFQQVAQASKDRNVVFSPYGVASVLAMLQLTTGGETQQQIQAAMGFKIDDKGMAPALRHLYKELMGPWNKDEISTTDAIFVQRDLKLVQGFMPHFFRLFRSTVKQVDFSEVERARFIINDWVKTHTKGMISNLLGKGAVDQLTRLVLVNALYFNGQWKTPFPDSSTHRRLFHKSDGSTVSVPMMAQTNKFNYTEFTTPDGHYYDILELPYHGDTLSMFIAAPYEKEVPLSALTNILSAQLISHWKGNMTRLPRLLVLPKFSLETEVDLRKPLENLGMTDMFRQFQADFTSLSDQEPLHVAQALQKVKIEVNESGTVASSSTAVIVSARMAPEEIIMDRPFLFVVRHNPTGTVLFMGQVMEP

IC50 [1] [nM]	SMILES	other results
6700	O=C(O)c1ccc(CNc2ccc([N+](=O)[O-])c(N3CCN(c4cccc(C(F)(F)F)c4)CC3)c2)cc1	–
2100	O=C(O)c1ccc(Oc2cc(N3CCN(c4cccc(C(F)(F)F)c4)CC3)c([N+](=O)[O-])cc2C(F)(F)F)cc1	–
3700	O=C(O)c1cccc(Oc2cc(N3CCN(c4cccc(C(F)(F)F)c4)CC3)c([N+](=O)[O-])cc2C(F)(F)F)c1	–
1000	O=C(O)c1ccccc1Oc1ccc([N+](=O)[O-])cc1CNc1ccc(N2CCN(c3cccc(C(F)(F)F)c3)CC2)c(C(F)(F)F)c1	–
1100	O=C(O)C1CCN(c2cc(N3CCN(c4ccc(C(F)(F)F)cc4)CC3)c([N+](=O)[O-])cc2C(F)(F)F)CC1	–
3200	O=C(O)C1CCN(c2cc(N3CCN(c4ccc(C(F)(F)F)cn4)CC3)c([N+](=O)[O-])cc2C(F)(F)F)CC1	–
> 15000	CC(C)[C@@H]1CC[C@@H](C)C[C@H]1OCC(=O)N1CCN(c2cc(N3CCC(C(=O)O)CC3)c(C(F)(F)F)cc2[N+](=O)[O-])CC1	–
900	O=C(O)CCNc1cc(N2CCN(c3cccc(C(F)(F)F)c3)CC2)c([N+](=O)[O-])cc1C(F)(F)F	–
5000	O=C(O)C1CCN(c2cc(N3CCN(C(=O)c4cccc(C(F)(F)F)c4)CC3)c([N+](=O)[O-])cc2C(F)(F)F)CC1	–
4300	O=C(O)C1CCN(c2cc(N3CCN(Cc4cccc(C(F)(F)F)c4)CC3)c([N+](=O)[O-])cc2C(F)(F)F)CC1	–
1000	O=C(O)C1CCN(c2cccc(F)c2CNc2ccc(N3CCN(c4cccc(C(F)(F)F)c4)CC3)c(C(F)(F)F)c2)CC1	–
1700	O=C(O)c1ccc(CNc2ccc(N3CCN(c4cccc(C(F)(F)F)c4)CC3)c(C(F)(F)F)c2)cc1	–
3500	O=C(O)C1CCN(c2cc(N3CCN(C(=O)Nc4cccc(C(F)(F)F)c4)CC3)c([N+](=O)[O-])cc2C(F)(F)F)CC1	–
3400	O=C(O)c1ccc(CNc2nc(N3CCN(c4cccc(C(F)(F)F)c4)CC3)ccc2[N+](=O)[O-])cc1	–
1700	O=C(O)C1CCN(c2cccc(C(F)(F)F)c2CNc2ccc(N3CCN(c4cccc(C(F)(F)F)c4)CC3)c(C(F)(F)F)c2)CC1	–
1400	O=C(O)c1ccc(CNc2cc(N3CCN(c4cccc(C(F)(F)F)c4)CC3)c([N+](=O)[O-])cc2[N+](=O)[O-])cc1	–
6100	O=C(O)c1ccc(CNc2ccc([N+](=O)[O-])c(N3CCN(c4cccc(C(F)(F)F)c4)CC3)n2)cc1	–

IC50 [1] [nM]	SMILES	other results
1400	O=C(O)C1CCCN1c1c([N+](=O)[O-])ccc(F)c1CNc1ccc(N2CCN(c3cccc(C(F)(F)F)c3)CC2)c(C(F)(F)F)c1 (stereo not given)	–
1800	O=[N+]([O-])c1cc(C(F)(F)F)c(N2CCN(c3cccc(C(F)(F)F)c3)CC2)cc1NC[P+]([O-])(O)O	–
2800	O=C(O)C1CCCN(c2cc(N3CCN(c4cccc(C(F)(F)F)c4)CC3)c([N+](=O)[O-])cc2C(F)(F)F)C1 (stereo not given)	–
500	COc1cccc(CNc2ccc(N3CCN(c4cccc(C(F)(F)F)c4)CC3)c(C(F)(F)F)c2)c1Oc1ccc([N+](=O)[O-])cc1C(=O)O	clearance [2]: 10.4 mL/min/kg; half-life [3]: 2.8 h; Vd [4]: 1.33 L/kg; Cmax [5]: 480 nM; Tmax [6]: 3 h; bioavailability [7]: 43%
900	COc1cccc(CNc2ccc(N3CCN(c4cccc(C(F)(F)F)c4)CC3)c(C(F)(F)F)c2)c1Oc1ccc(C(=O)O)cn1	–
900	COc1cccc(CNc2ccc(N3CCN(c4cccc(C(F)(F)F)c4)CC3)c(C(F)(F)F)c2)c1Oc1c(C(=O)O)cc(Cl)cc1[N+](=O)[O-]	–
1500	O=C(O)c1ccc(CNc2cc(N3CCN(c4cccc(C(F)(F)F)c4)CC3)c([N+](=O)[O-])cc2C(F)(F)F)cc1	–
1700	O=C(O)C1CCCN(c2cccc(F)c2CNc2ccc(N3CCN(c4cccc(C(F)(F)F)c4)CC3)c(C(F)(F)F)c2)C1 (stereo not given)	–
> 15000	COC(=O)c1c(NCc2ccc(C(=O)O)cc2)ccc([N+](=O)[O-])c1N1CCN(c2cccc(C(F)(F)F)c2)CC1	–
700	O=C(O)C1CCN(c2c([N+](=O)[O-])ccc(F)c2CNc2ccc(N3CCN(c4cccc(C(F)(F)F)c4)CC3)c(C(F)(F)F)c2)CC1	–
7900	O=C(O)C1CCCN1c1cc(N2CCN(c3cccc(C(F)(F)F)c3)CC2)c([N+](=O)[O-])cc1C(F)(F)F (stereo not given)	–
800	O=C(O)c1cc(Br)ccc1Oc1cccc(F)c1CNc1ccc(N2CCN(c3cccc(C(F)(F)F)c3)CC2)c(C(F)(F)F)c1	–
910	O=C(O)C1CCN(c2cc(N3CCN(c4cccc(C(F)(F)F)c4)CC3)c([N+](=O)[O-])cc2C(F)(F)F)CC1	–
> 15000	O=C(O)C1CCN(c2cc(N3CCN(c4c([N+](=O)[O-])ccc(C(F)(F)F)c4[N+](=O)[O-])CC3)c([N+](=O)[O-])cc2C(F)(F)F)CC1	–
–	CC(C)[C@@H]1CC[C@@H](C)C[C@H]1OCC(=O)Nc1cc(Oc2ccc(C(=O)O)cc2)ccc1[N+](=O)[O-]	clearance [2]: 4.84 mL/min/kg; half-life [3]: 3 h; Vd [4]: 0.4 L/kg; Cmax [5]: 160 nM; Tmax [6]: 3 h; bioavailability [7]: 23%
2800	O=C(O)c1ccc(CNc2cc(N3CCN(c4cccc(C(F)(F)F)c4)CC3)ccc2[N+](=O)[O-])cc1	–
880	O=C(O)C1CCN(c2cc(N3CCN(c4cccc(C(F)(F)F)c4)CC3)c(C(F)(F)F)cc2[N+](=O)[O-])CC1	–
